Laboratory results as given in patent US20250084056A1, “SUBSTITUTED OXOISOINDOLINYL PIPERIDINE-2,6-DIONE COMPOUNDS” (BRISTOL-MYERS SQUIBB COMPANY, priority 2023, published 2025).

Columns and labels:
Assay type in all cases: cell-based
[1] = tested on: Phospho-Rb (Ser807/811); assay: Phospho-Retinoblastoma (pRB) Cellular Assay; details: Homo sapiens, OVCAR-3, NIH OVCAR3 cells, 24 hours; for IC50: concentration giving 50% response; for Emax: maximum response, reference compound at 10 μM = 100%, read-out: pRB Ymax
Method in brief: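 Phospho-Rb (Ser807/811) kit read-out on EnVision after lysis (≥4 h, room temperature, dark) of OVCAR3 cells exposed to compound dilutions for 24 h. IC50 and maximum response Ymax are relative to a 10 μM reference compound defining 100%.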

[2] = molecular target: GSPT1 (Homo sapiens, UniProt P15170+Q96SW2); assay: GSPT1 Cellular Degradation Assay (DF15-GSPT1-ePL); parameters: expressed in transfected cells; details: DF15-GSPT1-ePL cells, 20 hours
Chain of GSPT1 (P15170 whole entry, the tested form may be a part): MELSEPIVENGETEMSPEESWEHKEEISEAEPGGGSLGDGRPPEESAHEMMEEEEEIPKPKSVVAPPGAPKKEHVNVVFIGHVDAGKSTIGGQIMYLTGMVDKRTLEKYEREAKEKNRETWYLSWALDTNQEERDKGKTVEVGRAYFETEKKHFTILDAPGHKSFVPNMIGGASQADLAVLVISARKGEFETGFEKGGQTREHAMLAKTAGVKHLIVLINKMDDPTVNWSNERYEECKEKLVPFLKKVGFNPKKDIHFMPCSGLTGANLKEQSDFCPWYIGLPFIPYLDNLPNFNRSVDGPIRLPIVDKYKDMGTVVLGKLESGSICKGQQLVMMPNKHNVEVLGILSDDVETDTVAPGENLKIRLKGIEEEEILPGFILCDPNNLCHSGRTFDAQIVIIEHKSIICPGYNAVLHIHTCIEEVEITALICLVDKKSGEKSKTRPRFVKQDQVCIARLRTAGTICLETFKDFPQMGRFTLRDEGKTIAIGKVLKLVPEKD
Chain of GSPT1 (Q96SW2 whole entry, the tested form may be a part): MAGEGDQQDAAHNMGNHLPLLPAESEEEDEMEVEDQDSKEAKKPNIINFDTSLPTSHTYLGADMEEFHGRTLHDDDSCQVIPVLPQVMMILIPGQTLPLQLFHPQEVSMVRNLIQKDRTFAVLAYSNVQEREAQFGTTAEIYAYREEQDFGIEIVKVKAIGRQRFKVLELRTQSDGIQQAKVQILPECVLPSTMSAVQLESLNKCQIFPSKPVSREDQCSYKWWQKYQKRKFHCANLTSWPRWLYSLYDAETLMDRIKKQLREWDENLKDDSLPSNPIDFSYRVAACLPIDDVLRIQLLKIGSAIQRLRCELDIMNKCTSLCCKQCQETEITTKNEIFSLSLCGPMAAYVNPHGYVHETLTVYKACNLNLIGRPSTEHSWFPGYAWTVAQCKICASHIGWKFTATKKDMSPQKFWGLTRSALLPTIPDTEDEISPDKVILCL
Chain of GSPT1 (Q16531 whole entry partner, the tested form may be a part): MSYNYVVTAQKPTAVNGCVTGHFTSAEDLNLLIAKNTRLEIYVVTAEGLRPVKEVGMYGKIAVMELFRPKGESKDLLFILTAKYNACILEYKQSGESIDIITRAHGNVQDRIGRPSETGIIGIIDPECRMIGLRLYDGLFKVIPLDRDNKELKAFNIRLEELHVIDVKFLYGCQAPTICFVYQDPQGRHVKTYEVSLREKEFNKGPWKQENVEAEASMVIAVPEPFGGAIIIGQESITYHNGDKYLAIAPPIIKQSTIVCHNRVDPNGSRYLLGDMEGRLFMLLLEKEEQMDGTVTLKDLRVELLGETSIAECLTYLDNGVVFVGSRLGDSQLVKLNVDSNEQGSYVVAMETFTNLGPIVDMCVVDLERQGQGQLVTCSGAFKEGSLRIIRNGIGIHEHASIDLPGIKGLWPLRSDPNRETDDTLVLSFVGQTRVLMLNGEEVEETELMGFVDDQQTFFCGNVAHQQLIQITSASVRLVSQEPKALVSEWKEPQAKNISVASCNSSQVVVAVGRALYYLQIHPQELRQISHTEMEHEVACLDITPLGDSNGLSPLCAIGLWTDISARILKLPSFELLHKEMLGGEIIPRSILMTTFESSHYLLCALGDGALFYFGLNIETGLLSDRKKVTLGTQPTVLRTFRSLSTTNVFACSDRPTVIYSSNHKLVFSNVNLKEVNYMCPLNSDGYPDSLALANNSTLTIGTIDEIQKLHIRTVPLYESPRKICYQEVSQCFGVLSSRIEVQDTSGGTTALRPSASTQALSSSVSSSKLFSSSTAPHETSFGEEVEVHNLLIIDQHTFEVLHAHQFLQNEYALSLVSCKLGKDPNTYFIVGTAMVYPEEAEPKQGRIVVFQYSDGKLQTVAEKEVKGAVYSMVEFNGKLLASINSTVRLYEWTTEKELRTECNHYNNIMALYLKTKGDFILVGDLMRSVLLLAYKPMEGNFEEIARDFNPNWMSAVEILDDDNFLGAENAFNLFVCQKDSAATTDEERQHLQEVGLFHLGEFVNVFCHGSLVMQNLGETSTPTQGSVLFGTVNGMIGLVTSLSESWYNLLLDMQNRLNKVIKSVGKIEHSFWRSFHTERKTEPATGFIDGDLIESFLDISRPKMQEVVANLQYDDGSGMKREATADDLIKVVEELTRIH
Method in brief: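 DC50 and Dmax were derived from chemiluminescence, with 75% response set by the reference compound at […]. Readout was ePL enzyme-fragment complementation in a DF15 line expressing chimeric GSPT1. Cells were exposed to compound for 20 h at 37 °C in RPMI 1640 with 10% FBS, cooled 30 min, then lysed with substrate for 60 min.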

[3] = molecular target: Cyclin E1 (Homo sapiens, UniProt P24864+Q96SW2); assay: Cyclin E1 Cellular Degradation Assay (MSD); parameters: endogenous in cells; host or cells: OVCAR3; details: for DC50 / Dmax: Cyclin E1 cellular degradation; for Dmax: maximum degradation; for Ratio of GSPT1 DC50/Cyclin E1 DC50: selectivity for degradation of Cyclin E1 over GSPT1
Chain of Cyclin E1 (P24864 whole entry): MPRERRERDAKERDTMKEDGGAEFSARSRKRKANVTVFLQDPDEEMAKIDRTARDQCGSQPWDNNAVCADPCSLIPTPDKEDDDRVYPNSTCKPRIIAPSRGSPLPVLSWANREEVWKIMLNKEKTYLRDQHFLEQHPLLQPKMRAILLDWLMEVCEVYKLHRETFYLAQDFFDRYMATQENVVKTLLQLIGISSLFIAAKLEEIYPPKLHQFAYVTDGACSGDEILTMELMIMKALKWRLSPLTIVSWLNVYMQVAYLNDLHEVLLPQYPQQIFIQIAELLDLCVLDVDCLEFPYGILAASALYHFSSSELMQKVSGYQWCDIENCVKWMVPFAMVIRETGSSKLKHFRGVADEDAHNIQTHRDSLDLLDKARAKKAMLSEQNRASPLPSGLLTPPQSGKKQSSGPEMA
Chain of Cyclin E1 (Q96SW2 whole entry): as the sequence (Q96SW2 whole entry, the tested form may be a part) above
Chain of Cyclin E1 (Q16531 whole entry partner): as the sequence (Q16531 whole entry partner, the tested form may be a part) above
Method in brief: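 Cyclin E1 remaining after 24 h compound exposure of OVCAR3 cells was quantified in lysates by electrochemiluminescent MSD sandwich assay. DC50 (50% response concentration) and Dmax (maximum response) were calculated, with 110% response set by a reference compound at […].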

Structure (SMILES) | IC50 [1] | Emax [1] | DC50 [2] | Dmax [2] | DC50 [3] | Dmax [3] | Ratio of GSPT1 DC50/Cyclin E1 DC50 [3]
COc1c(COC(=O)Nc2ccc(Oc3cc(F)c(F)cc3Cl)cc2F)ccc2c1C(=O)N(C1CCC(=O)NC1=O)C2 (stereo not drawn) [Example 109, [2-(2,6-dioxopiperidin-3-yl)-4-methoxy-3-oxo-2,3-dihydro-1H-isoindol-5-yl]methyl N-[4-(2-chloro-4,5-difluorophenoxy)-2-fluorophenyl]carbamate] | 66 nM | 114% | > 14000 nM | 42% | 111 nM | 107% | >127
COc1c(COC(=O)Nc2ccc(Oc3cccc(F)c3F)cc2)ccc2c1C(=O)N(C1CCC(=O)NC1=O)C2 (stereo not drawn) [Example 110, [2-(2,6-dioxopiperidin-3-yl)-4-methoxy-3-oxo-2,3-dihydro-1H-isoindol-5-yl]methyl N-[4-(2,3-difluorophenoxy)phenyl]carbamate] | 72 nM | 99% | > 14000 nM | 20% | 173 nM | 106% | >81
COc1c(COC(=O)Nc2ccc(Oc3cccc(F)c3Cl)cc2)ccc2c1C(=O)N(C1CCC(=O)NC1=O)C2 (stereo not drawn) [Example 111, [2-(2,6-dioxopiperidin-3-yl)-4-methoxy-3-oxo-2,3-dihydro-1H-isoindol-5-yl]methyl N-[4-(2-chloro-3-fluorophenoxy)phenyl]carbamate] | 74 nM | 99% | > 14000 nM | 15% | 95 nM | 106% | >147
COc1c(COC(=O)Nc2ccc(Oc3c(F)cccc3F)cc2)ccc2c1C(=O)N(C1CCC(=O)NC1=O)C2 (stereo not drawn) [Example 112, [2-(2,6-dioxopiperidin-3-yl)-4-methoxy-3-oxo-2,3-dihydro-1H-isoindol-5-yl]methyl N-[4-(2,6-difluorophenoxy)phenyl]carbamate] | 46 nM | 115% | > 14000 nM | 26% | 226 nM | 105% | >62
COc1c(COC(=O)Nc2ccc(Oc3cccc4ccccc34)cc2)ccc2c1C(=O)N(C1CCC(=O)NC1=O)C2 (stereo not drawn) [Example 113, [2-(2,6-dioxopiperidin-3-yl)-4-methoxy-3-oxo-2,3-dihydro-1H-isoindol-5-yl]methyl N-[4-(naphthalen-1-yloxy)phenyl]carbamate] | 99 nM | 93% | > 14000 nM | 37% | 190 nM | 113% | >74
COc1c(COC(=O)Nc2ccc(Oc3ccc4sccc4c3)cc2)ccc2c1C(=O)N(C1CCC(=O)NC1=O)C2 (stereo not drawn) [Example 114, [2-(2,6-dioxopiperidin-3-yl)-4-methoxy-3-oxo-2,3-dihydro-1H-isoindol-5-yl]methyl N-[4-(1-benzothiophen-5-yloxy)phenyl]carbamate] | 640 nM | 110% | > 14000 nM | 29% | 282 nM | 106% | >50
COc1c(COC(=O)Nc2ccc(Oc3ccc4ccsc4c3)cc2)ccc2c1C(=O)N(C1CCC(=O)NC1=O)C2 (stereo not drawn) [Example 115, [2-(2,6-dioxopiperidin-3-yl)-4-methoxy-3-oxo-2,3-dihydro-1H-isoindol-5-yl]methyl N-[4-(1-benzothiophen-6-yloxy)phenyl]carbamate] | 247 nM | 114% | 10300 nM | 63% | 217 nM | 108% | 48
COc1c(COC(=O)Nc2ccc(Oc3cccc(Cl)c3Cl)cc2F)ccc2c1C(=O)N(C1CCC(=O)NC1=O)C2 (stereo not drawn) [Example 116, [2-(2,6-dioxopiperidin-3-yl)-4-methoxy-3-oxo-2,3-dihydro-1H-isoindol-5-yl]methyl N-[4-(2,3-dichlorophenoxy)-2-fluorophenyl]carbamate] | 73 nM | 107% | > 14000 nM | 43% | 87 nM | 110% | >160
COc1c(COC(=O)Nc2ccc(Oc3ccc(Cl)c(Cl)c3)cc2F)ccc2c1C(=O)N(C1CCC(=O)NC1=O)C2 (stereo not drawn) [Example 117, [2-(2,6-dioxopiperidin-3-yl)-4-methoxy-3-oxo-2,3-dihydro-1H-isoindol-5-yl]methyl N-[4-(3,4-dichlorophenoxy)-2-fluorophenyl]carbamate] | 115 nM | 108% | > 14000 nM | 28% | 104 nM | 108% | >135
